Data from patent publication US20260069584A1, “METHODS OF TREATING CHRONIC MYELOID LEUKEMIA USING THE TYROSINE KINASE INHIBITOR VODOBATINIB” (Sun Pharma Advanced Research Company Ltd., priority 2022, published 2026).

Experiment: Part B: safety, treatment-emergent adverse events, DLT and MTD
Format: in vivo
Source text: For the purpose of the present invention, the adverse events were graded as per the National Cancer Institute's, Common Terminology Criteria for Adverse Events (NCI-CTCAE) Version 4.03 and Version 5.0 (https://evs.nci.nih.gov/ftp1/CTCAE/About.html). It is a descriptive terminology which can be utilized for Adverse Event (AE) reporting.
AEs were graded as per NCI-CTCAE Version 5.0. In the present study, along with others most common AEs for which patients were monitored were thrombocytopenia, neutropenia and anemia, any AE reported by the patient after the completion of AE collection period and considered related to the study drug was reported.
Dose Limiting Toxicity (DLT) is defined as the occurrence of any of the following unless clearly and incontrovertibly related to the underlying disease. The hematological DLTs were defined as per the Phase of CML: • a) Grade 3 or higher, or other non-hematological toxicity, including nausea, vomiting and diarrhea, and refractory to standard antiemetic therapy except alopecia and nail disorders; • b) Missed ≥25% of doses over 28 days due to toxicity in Cycle 1; and • c) Any grade of toxicity requiring dose reduction or discontinuation of IMP within the 28-days DLT assessment period (Cycle 1).
Safety Parameters: Parts B and C: Descriptive summaries were provided for the safety variables collected. Continuous variables were summarized using mean, standard deviation, minimum, median, and maximum. Categorical variables were summarized using frequency counts and percentages. For time-to-event variables, other percentiles were presented. In addition, summaries of AEs by intensity, seriousness, frequency, and relationship to IMP are presented. Adverse events (AE) s were coded using the Medical Dictionary for Regulatory Activities (MedDRA) and summarized by System Organ Class (SOC) and Preferred Term (PT).
In this study, the dose-escalation cohort started with an accelerated titration study design (ATD) and shifted to a 3±3 design when subjects in the preceding ATD cohort experienced either grade 2 or higher adverse events (AEs) or dose-limiting toxicity (DLT) during Cycle 1 that was not clearly and incontrovertibly related to the underlying disease or concomitant medications. The DLT period consisted of 28 days (Cycle 1). Subjects experiencing DLTs were managed with dose delays and/or discontinuation and continued in the study until disease progression. Decisions to advance to a succeeding dose level occurred after the evaluation of safety and tolerability data for a given dose level.
For the cohorts, where the 3±3 design applies, 3 subjects were enrolled initially. If 2 of these subjects experienced a Grade 2 or more toxicity (that was not clearly and incontrovertibly related to the underlying disease or concomitant medications), subsequent cohorts were escalated according to smaller increments. Further, if there were no DLTs in the first 3 subjects, dose escalation to the next higher dose level was allowed to proceed. If 1 of the 3 subjects experienced a DLT, that dose level was expanded to 6 subjects (3 additional subjects were enrolled). If 2 subjects at a given dose level experienced a DLT, the MTD was considered to have been exceeded. The next lower dose level was expanded to 6 subjects, or if 6 subjects had already been enrolled and no more than 1 of the 6 subjects experienced a DLT, then this lower dose level was considered the MTD. Additional subjects were enrolled in dose escalation cohorts for further assessment of safety and efficacy of the compound of Formula 1 at doses that were tolerated (i.e., doses that have <2 DLTs in 6 enrolled subjects or <1 DLT in 3 enrolled subjects). Thus 204 mg was arrived at as MTD. A subject experiencing a DLT was allowed to continue therapy with a reduced dose. Subjects who experienced a DLT and recovered were treated at the next lower dose level until disease progression or other events requiring further dose reduction existed. […]

## Cc1ccc(C(=O)NNC(=O)c2c(C)cccc2Cl)cc1C#Cc1cnc2ccccc2c1 [compound of Formula I, N′-(2-chloro-6-methylbenzoyl)-4-methyl-3-[2-(3-quinolyl)ethynyl]-benzohydrazide]
Overall (N = 53)
  Vomiting, Any grade: 7 No of pts
  Vomiting, Grade 3/4: 0 No of pts
Prior Ponatinib (N = 22)
  All TEAEs, Any grade: 22 No of pts
  All TEAEs, Grade 3/4: 19 No of pts
  Amylase increased, Any grade: 3 No of pts
  Amylase increased, Grade 3/4: 2 No of pts
  Anemia, Any grade: 6 No of pts
  Anemia, Grade 3/4: 4 No of pts
  Back pain, Any grade: 3 No of pts
  Back pain, Grade 3/4: 0 No of pts
  Constipation, Any grade: 3 No of pts
  Constipation, Grade 3/4: 0 No of pts
  Cough, Any grade: 5 No of pts
  Cough, Grade 3/4: 0 No of pts
  Death, Any grade: 2 No of pts
  Death, Grade 3/4: 0 No of pts
  Decreased appetite, Any grade: 3 No of pts
  Decreased appetite, Grade 3/4: 0 No of pts
  Diarrhoea, Any grade: 7 No of pts
  Diarrhoea, Grade 3/4: 1 No of pts
  Fatigue, Any grade: 4 No of pts
  Fatigue, Grade 3/4: 0 No of pts
  Headache, Any grade: 4 No of pts
  Headache, Grade 3/4: 0 No of pts
  Lipase increased, Any grade: 2 No of pts
  Lipase increased, Grade 3/4: 2 No of pts
  Myalgia, Any grade: 2 No of pts
  Myalgia, Grade 3/4: 0 No of pts
  Nasopharyngitis, Any grade: 2 No of pts
  Nasopharyngitis, Grade 3/4: 0 No of pts
  Nausea, Any grade: 7 No of pts
  Nausea, Grade 3/4: 0 No of pts
  Neutropenia, Any grade: 3 No of pts
  Neutropenia, Grade 3/4: 2 No of pts
  Pruritis, Any grade: 4 No of pts
  Pruritis, Grade 3/4: 0 No of pts
  Pyrexia, Any grade: 4 No of pts
  Pyrexia, Grade 3/4: 1 No of pts
  Rhinitis, Any grade: 4 No of pts
  Rhinitis, Grade 3/4: 0 No of pts
  SAEs, Any grade: 10 No of pts
  SAEs, Grade 3/4: 7 No of pts
  TEAEs Leading to drug withdrawal, Any grade: 2 No of pts
  TEAEs Leading to drug withdrawal, Grade 3/4: 2 No of pts
  TEAEs Related to comp of Formula I, Any grade: 15 No of pts
  TEAEs Related to comp of Formula I, Grade 3/4: 7 No of pts
  TEAEs: Dose discontinued and restarted, Any grade: 12 No of pts
  TEAEs: Dose discontinued and restarted, Grade 3/4: 7 No of pts
  TEAEs: Dose modifications, Any grade: 8 No of pts
  TEAEs: Dose modifications, Grade 3/4: 4 No of pts
  Thrombocytopenia, Any grade: 7 No of pts
  Thrombocytopenia, Grade 3/4: 3 No of pts
  Vomiting, Any grade: 4 No of pts
  Vomiting, Grade 3/4: 0 No of pts
Any grade
  Cough: 20.8%
  anemia: 20.8%
  diarrhea: 22%
  thrombocytopenia: 41.5%
